3 compounds from ChEMBL document CHEMBL4616612, “Synthesis and inhibitory effect of cis-guggulsterone on lipopolysaccharide-induced production of nitric oxide in macrophages” (Bioorg Med Chem Lett, 2020) can be followed below.

The subject of data set [1] is RAW264.7. Kind of data set: Anti-inflammatory activity in mouse RAW264.7 cells assessed as inhibition of LPS-induced NO production preincubated for 1 hr followed by LPS addition and measured after 24 hrs. Type of data set: functional, cell-based.
For data set [2], the system named is RAW264.7. Kind of data set: Anti-inflammatory activity in mouse RAW264.7 cells assessed as reduction in LPS-induced IL6 level preincubated for 2 hrs followed by LPS addition and measured after 18 hrs by ELISA. In kind it is functional, cell-based. On the technique in general: ELISA stands for enzyme-linked immunosorbent assay.
Data set [3] in a line: Cytotoxicity against mouse RAW264 cells assessed as reduction in cell viability at 25 uM incubated for 24 hrs by MTT assay. In kind it is cell-based.
The test system of data set [4] is RAW264.7. Kind of data set: Anti-inflammatory activity in mouse RAW264.7 cells assessed as reduction in LPS-induced COX2 protein level at 6.25 to 12.5 microM by Western blot analysis. In kind it is functional, cell-based. In general terms: Immunoblotting shows a protein as a band on a membrane.
Data set [5] concerns RAW264.7. Kind of data set: Anti-inflammatory activity in mouse RAW264.7 cells assessed as reduction in LPS-induced TNFalpha level preincubated for 2 hrs followed by LPS addition and measured after 18 hrs by ELISA. Type of data set: functional, cell-based.
In data set [6] the test system is RAW264.7. Kind of data set: Anti-inflammatory activity in mouse RAW264.7 cells assessed as reduction in LPS-induced iNOS protein level at 6.25 to 12.5 microM by Western blot analysis. In kind it is functional, cell-based.
Data set [7] is described as follows: Cytotoxicity against mouse RAW264 cells assessed as reduction in cell viability up to 25 uM incubated for 24 hrs by MTT assay. Type of data set: cell-based. For orientation: Formazan colour is commonly taken as a measure of viable cells.

The source made the active and inactive calls. The calls are words filed in the database; no cut-off is given here.

For `COC(=O)[C@@H](N)CCCNC(=N)N[N+](=O)[O-]`, the inhibition entry in the data set with RAW264.7 [1] is “Active”.

Take `C/C=C1/C(=O)C[C@H]2[C@@H]3CCC4=CC(=O)CC[C@]4(C)[C@H]3CC[C@]12C` [E-GUGGULSTERONE]: the Activity result was “Dose-dependent effect” with RAW264.7 [2], “Toxic” in data set [3], “Dose-dependent effect” with RAW264.7 [1] and “Dose-dependent effect” with RAW264.7 [5]. In addition, the result with RAW264.7 [4] and with RAW264.7 [6] was Active.

For the compound `C/C=C1\C(=O)C[C@H]2[C@@H]3CCC4=CC(=O)CC[C@]4(C)[C@H]3CC[C@]12C` [GUGGULSTERONE], the Activity result in the data set with RAW264.7 [1] was “Dose-dependent effect”; in data set [7], “Non-Toxic”.
